Data published in ChEMBL document CHEMBL1129976, “New benzocycloalkylpiperazines, potent and selective 5-HT1A receptor ligands” (J Med Chem, 1997).

Legend:
[1] = target: T1, Alpha-1A adrenergic receptor (Bos taurus, UniProt P18130); experiment: Binding affinity of compound towards Alpha-1 adrenergic receptor using [3H]prazosin 0.5 nM ligand in frontal cortex calf was determined; format: tissue-based
T1 sequence (P18130 whole entry): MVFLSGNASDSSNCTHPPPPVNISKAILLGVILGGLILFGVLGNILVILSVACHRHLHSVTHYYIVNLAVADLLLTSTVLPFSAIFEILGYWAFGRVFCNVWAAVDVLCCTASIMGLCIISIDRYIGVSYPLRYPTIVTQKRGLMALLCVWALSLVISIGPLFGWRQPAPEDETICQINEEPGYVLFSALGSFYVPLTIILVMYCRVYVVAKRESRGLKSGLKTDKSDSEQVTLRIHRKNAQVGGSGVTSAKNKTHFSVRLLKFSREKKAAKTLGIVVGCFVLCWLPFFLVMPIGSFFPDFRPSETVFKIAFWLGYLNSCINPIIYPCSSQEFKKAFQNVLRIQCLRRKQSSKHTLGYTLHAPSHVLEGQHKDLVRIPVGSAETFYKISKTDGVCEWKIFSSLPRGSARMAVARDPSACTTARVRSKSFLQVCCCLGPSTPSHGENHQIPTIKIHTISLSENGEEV

[2] = target: T2, 5-hydroxytryptamine receptor 1A (Rattus norvegicus, UniProt P19327); experiment: Displacement of [3H]8-OH-DPAT from 5-hydroxytryptamine 1A receptor of rat hippocampal membranes; format: cell membranes, Membrane
T2 sequence (P19327 whole entry): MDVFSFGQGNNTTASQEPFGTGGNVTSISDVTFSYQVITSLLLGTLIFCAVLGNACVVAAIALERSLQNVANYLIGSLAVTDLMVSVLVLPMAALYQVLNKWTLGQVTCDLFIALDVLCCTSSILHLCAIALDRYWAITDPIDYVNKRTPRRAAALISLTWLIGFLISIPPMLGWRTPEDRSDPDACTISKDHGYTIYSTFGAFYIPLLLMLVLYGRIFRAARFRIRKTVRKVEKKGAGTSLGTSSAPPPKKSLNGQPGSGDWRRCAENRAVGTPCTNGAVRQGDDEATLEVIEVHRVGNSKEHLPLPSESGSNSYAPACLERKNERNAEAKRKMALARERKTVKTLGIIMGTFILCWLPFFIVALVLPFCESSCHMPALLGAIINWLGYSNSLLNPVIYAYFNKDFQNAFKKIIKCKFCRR

[3] = target: T2, 5-hydroxytryptamine receptor 1A; experiment: Inhibition of forskolin-activated adenylate cyclase (cAMP) activity at 5-hydroxytryptamine 1A receptor in rat hippocampus; format: functional, tissue-based
[4] = target: T3, 5-hydroxytryptamine receptor 1A (Rattus norvegicus) (UniProt P19327); experiment: Inhibition of [3H]8-OH-DPAT binding to 5-hydroxytryptamine 1A receptor in rat hippocampal membranes at 10e-7 M; format: cell membranes; settings: Hippocampus, Membrane
T3 sequence (whole entry): T2 sequence (P19327 whole entry)

Bos taurus [5] = species on record: Bos taurus; experiment: Inhibition of [3H]ketanserin binding to 5-hydroxytryptamine 2 receptor of bovine frontal cortex at 10e-7 M; format: tissue-based
[6] = Inhibition of [3H]ketanserin binding to 5-hydroxytryptamine 2 receptor of bovine frontal cortex; format: tissue-based, Bos taurus
[7] = target: T4, 5-hydroxytryptamine receptor 3B (Mus musculus, UniProt Q9JHJ5); experiment: Inhibition of [3H]BRL-43694 binding to 5-hydroxytryptamine 3 receptor in NG cells 108-15; format: cell-based
T4 sequence (Q9JHJ5 whole entry): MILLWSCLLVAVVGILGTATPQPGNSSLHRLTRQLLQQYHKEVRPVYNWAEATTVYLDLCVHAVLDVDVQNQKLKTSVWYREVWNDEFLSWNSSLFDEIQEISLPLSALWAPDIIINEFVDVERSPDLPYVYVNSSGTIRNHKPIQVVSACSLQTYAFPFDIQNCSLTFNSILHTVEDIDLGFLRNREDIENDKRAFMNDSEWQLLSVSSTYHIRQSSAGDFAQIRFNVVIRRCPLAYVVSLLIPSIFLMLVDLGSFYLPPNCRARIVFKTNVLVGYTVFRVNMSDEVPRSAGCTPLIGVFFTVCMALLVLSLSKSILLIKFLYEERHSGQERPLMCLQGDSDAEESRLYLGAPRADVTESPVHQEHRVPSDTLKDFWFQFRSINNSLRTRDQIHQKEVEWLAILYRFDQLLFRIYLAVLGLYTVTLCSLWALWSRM

Bos taurus [8] = species on record: Bos taurus; experiment: Inhibition of [3H]prazosin binding to Alpha-1 adrenergic receptor of calf frontal cortex at 10e-7 M; format: tissue-based
[9] = target: T1, Alpha-1A adrenergic receptor; experiment: Inhibition of [3H]prazosin binding to Alpha-1 adrenergic receptor in bovine frontal cortex; format: tissue-based
[10] = target: D(2) dopamine receptor (Bos taurus) (UniProt P20288); experiment: Inhibition of [3H]YM-09151-2 binding to Dopamine receptor D2 of bovine striatal preparations at 10e-7 M
Sequence of D(2) dopamine receptor (Bos taurus) (P20288 whole entry): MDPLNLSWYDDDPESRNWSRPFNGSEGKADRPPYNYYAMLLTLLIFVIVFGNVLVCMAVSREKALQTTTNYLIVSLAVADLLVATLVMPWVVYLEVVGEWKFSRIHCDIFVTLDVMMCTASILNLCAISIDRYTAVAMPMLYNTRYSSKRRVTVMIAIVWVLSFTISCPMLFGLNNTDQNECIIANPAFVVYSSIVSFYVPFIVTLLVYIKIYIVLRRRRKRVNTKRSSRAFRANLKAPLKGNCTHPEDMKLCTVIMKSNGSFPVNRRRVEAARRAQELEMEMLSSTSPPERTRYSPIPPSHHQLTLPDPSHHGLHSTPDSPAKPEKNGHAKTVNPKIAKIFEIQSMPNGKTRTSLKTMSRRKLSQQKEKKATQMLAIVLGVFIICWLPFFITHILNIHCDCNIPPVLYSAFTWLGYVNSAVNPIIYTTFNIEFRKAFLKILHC

D(2) dopamine receptor = D(2) dopamine receptor (Bos taurus, UniProt P20288); experiment: Inhibition of [3H]raclopride binding to Dopamine receptor D2 of bovine striatum; format: tissue-based
Sequence of D(2) dopamine receptor (P20288 whole entry): as above

D(1A) dopamine receptor [11] = target: T5, D(1A) dopamine receptor (Bos taurus, UniProt Q95136); experiment: Inhibition of [3H]SCH-23390 binding to Dopamine receptor D1 of bovine striatum; format: tissue-based
T5 sequence (Q95136 whole entry): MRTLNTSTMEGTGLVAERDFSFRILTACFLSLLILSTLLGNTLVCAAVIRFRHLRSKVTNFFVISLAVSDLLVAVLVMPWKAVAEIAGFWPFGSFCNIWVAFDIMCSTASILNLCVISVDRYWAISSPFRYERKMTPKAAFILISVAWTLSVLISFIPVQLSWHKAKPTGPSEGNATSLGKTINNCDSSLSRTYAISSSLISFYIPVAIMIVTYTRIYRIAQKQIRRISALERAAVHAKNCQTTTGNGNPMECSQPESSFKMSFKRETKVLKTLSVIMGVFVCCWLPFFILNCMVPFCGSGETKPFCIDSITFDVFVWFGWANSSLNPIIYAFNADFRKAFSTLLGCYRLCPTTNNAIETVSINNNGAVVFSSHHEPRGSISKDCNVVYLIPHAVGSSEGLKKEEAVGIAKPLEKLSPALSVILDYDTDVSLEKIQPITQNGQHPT

Histamine H1 receptor = Histamine H1 receptor (Rattus norvegicus, UniProt P31390); experiment: Inhibition of [3H]pyrilamine binding to Histamine H1 receptor in rat cortex
Sequence of Histamine H1 receptor (P31390 whole entry): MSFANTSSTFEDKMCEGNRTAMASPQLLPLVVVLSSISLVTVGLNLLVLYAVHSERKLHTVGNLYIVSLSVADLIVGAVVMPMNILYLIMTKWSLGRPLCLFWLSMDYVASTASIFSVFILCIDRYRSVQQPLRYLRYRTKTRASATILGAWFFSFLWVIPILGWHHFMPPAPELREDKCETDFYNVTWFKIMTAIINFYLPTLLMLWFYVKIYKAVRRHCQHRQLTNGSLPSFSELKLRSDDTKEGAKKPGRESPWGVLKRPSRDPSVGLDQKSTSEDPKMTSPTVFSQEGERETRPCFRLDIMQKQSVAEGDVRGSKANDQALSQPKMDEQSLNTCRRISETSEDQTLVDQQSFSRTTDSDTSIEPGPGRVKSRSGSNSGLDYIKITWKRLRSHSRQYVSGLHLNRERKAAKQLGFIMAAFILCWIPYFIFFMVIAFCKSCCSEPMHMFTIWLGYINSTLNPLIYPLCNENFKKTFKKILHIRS

Rattus norvegicus = experiment: in vivo behavioral test for Lower Lip Retraction(LLR) (msad=minimum significant active dose) in rats; format: functional
[12] = target: Sigma non-opioid intracellular receptor 1 (Rattus norvegicus, UniProt Q9R0C9); experiment: Inhibition of [3H]DTG binding to sigma receptor in rat hippocampus; format: tissue-based
Sequence of Sigma non-opioid intracellular receptor 1 (Rattus norvegicus, UniProt Q9R0C9) (Q9R0C9 whole entry): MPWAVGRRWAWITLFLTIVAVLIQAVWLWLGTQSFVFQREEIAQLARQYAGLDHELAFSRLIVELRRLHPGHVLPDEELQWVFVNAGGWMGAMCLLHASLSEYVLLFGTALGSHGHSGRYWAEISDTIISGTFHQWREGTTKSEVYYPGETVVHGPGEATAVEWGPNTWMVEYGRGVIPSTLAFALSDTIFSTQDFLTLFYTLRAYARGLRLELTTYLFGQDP

[13] = Displacement of [3H]-prazosin from Alpha-1 adrenergic receptor of bovine frontal cortex; format: tissue-based, Bos taurus
[14] = target: 5-hydroxytryptamine receptor 1D (Sus scrofa, UniProt P79400); experiment: Binding affinity against 5-hydroxytryptamine 1D receptor using [3H]5-HT in pig striatum + frontalCortex; format: tissue-based
Sequence of 5-hydroxytryptamine receptor 1D (P79400 whole entry): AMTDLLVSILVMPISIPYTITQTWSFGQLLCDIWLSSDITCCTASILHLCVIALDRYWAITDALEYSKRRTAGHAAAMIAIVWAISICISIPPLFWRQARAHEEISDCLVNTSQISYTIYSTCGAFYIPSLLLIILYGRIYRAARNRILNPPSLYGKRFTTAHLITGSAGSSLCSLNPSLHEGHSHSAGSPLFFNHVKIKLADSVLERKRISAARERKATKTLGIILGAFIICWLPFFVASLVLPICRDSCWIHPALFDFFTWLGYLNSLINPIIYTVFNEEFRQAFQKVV

[15] = target: 5-hydroxytryptamine receptor 2A (Bos taurus, UniProt Q75Z89); experiment: Binding affinity against 5-hydroxytryptamine 2 receptor
Sequence of 5-hydroxytryptamine receptor 2A (Q75Z89 whole entry): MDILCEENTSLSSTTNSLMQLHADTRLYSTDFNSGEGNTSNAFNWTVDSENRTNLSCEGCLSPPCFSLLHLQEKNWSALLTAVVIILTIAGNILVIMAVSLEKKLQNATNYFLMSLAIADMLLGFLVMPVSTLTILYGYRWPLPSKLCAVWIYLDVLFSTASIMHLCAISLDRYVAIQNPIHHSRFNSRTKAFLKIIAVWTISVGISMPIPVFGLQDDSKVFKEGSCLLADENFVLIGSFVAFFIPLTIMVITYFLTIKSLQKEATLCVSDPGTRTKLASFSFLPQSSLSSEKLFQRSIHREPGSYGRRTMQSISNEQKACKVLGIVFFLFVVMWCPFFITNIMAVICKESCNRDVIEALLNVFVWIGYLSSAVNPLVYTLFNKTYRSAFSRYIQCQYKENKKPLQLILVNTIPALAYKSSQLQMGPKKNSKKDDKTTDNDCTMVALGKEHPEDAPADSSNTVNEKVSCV

D(1A) dopamine receptor [16] = target: D(1A) dopamine receptor (Mus musculus, UniProt Q61616); experiment: Binding affinity against Dopamine receptor D1
Sequence of D(1A) dopamine receptor (Mus musculus, UniProt Q61616) (Q61616 whole entry): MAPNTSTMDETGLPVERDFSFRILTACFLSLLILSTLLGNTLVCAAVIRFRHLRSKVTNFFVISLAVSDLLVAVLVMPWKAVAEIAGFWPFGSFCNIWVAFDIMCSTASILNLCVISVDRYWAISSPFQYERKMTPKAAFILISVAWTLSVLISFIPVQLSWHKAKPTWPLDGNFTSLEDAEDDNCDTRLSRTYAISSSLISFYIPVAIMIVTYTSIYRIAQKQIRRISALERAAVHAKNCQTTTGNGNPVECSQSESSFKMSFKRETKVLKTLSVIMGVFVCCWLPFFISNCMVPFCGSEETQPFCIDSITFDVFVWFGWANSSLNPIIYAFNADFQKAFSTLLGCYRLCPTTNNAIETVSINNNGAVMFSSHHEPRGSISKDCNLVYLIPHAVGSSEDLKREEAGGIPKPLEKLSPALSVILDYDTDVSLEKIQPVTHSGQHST

[17] = target: Sigma non-opioid intracellular receptor 1 (Homo sapiens, UniProt Q99720); experiment: Binding affinity against sigma receptor
Sequence of Sigma non-opioid intracellular receptor 1 (Homo sapiens, UniProt Q99720) (Q99720 whole entry): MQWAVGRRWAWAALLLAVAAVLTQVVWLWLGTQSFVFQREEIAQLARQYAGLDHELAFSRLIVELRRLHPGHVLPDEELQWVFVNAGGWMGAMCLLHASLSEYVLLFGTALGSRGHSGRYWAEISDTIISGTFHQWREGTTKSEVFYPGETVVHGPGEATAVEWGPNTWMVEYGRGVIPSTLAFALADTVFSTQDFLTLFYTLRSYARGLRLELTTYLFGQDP

D(1A) dopamine receptor [18] = target: T5, D(1A) dopamine receptor; experiment: Binding affinity of compound towards Dopamine receptor D1 using [3H]SCH-23390 (0.5 nM) ligand in striatum bovine was determined; format: tissue-based

Row | Structure (SMILES) | Ki [2] [nM] | IC50 [3] [nM] | inhibition [4] [%] | inhibition (Bos taurus [5]) [%] | inhibition (Bos taurus [8]) [%] | inhibition [10] [%] | Ki (D(2) dopamine receptor) [nM] | Ki (D(1A) dopamine receptor [11]) [nM] | Ki [12] [nM] | Ki [13] [nM] | other results
1 | COc1cccc(OC)c1OCCNCC1COc2ccccc2O1 (stereo not drawn) |  |  |  |  |  |  |  |  |  |  | Ki [1]: 0.6 nM
2 | O=C(CCCN1CCN(C2CCCc3ccccc32)CC1)c1ccc(F)cc1 (stereo not drawn) | 17 | 210 | 37 | 20 | 1 | 74 | 110 | 1000 | 30 |  | Ki ([6]; read-out: Ki): 66 nM; Ki [7]: 3160 nM; Ki [9]: 18 nM; Ki (Histamine H1 receptor): 42 nM; LLR msad (Rattus norvegicus): >64 mg/kg
3 | COc1ccc(C(=O)NCCN2CCN(C3CCCCc4ccccc43)CC2)cc1 (stereo not drawn) |  |  | 11 | 10 | 0 | 60 |  |  |  |  | 
4 | COc1ccc(C(=O)NCCN2CCN(C3CCCc4ccccc43)CC2)cc1 (stereo not drawn) |  |  | 63 | 28 | 0 | 7 |  |  |  |  | 
5 | COc1ccc(C(=O)NCCN2CCN(C3CCc4ccccc43)CC2)cc1 (stereo not drawn) |  |  | 45 | 17 | 6 | 11 |  |  |  |  | 
6 | Cc1ccc(C(=O)NCCN2CCN(C3CCCCc4ccccc43)CC2)cc1 (stereo not drawn) |  |  | 0 | 14 | 0 | 47 |  |  |  |  | 
7 | Cc1ccc(C(=O)NCCN2CCN(C3CCCc4ccccc43)CC2)cc1 (stereo not drawn) |  |  | 42 | 6 | 0 | 5 |  |  |  |  | 
8 | O=C(NCCCN1CCN(C2CCCc3ccccc32)CC1)c1ccc(F)cc1 (stereo not drawn) |  |  | 68 | 19 | 6 | 0 |  |  |  |  | 
9 | O=C(NCCCN1CCN(C2CCCc3ccccc32)CC1)c1ccccc1 (stereo not drawn) |  |  | 39 | 17 | 11 | 2 |  |  |  |  | 
10 | O=C(NCCN1CCN(C2CCCCc3ccccc32)CC1)c1ccc(F)cc1 (stereo not drawn) |  |  | 22 | 23 | 0 | 31 |  |  |  |  | 
11 | O=C(NCCN1CCN(C2CCCCc3ccccc32)CC1)c1ccccc1 (stereo not drawn) |  |  | 51 | 37 | 0 | 7 |  |  |  |  | 
12 | O=C(NCCN1CCN(C2CCc3ccccc32)CC1)c1ccc(F)cc1 (stereo not drawn) |  |  | 69 | 0 | 36 | 0 |  |  |  |  | 
13 | O=C(NCCN1CCN(C2CCCc3ccccc32)CC1)c1ccc(F)cc1 (single isomer, unassigned; (+)) | 50 | 1450 |  |  |  |  | 740 |  | 190 | 710 | Ki ([6]; read-out: Ki): 1300 nM
14 | O=C(NCCN1CCN(C2CCCc3ccccc32)CC1)c1ccccc1 (single isomer, unassigned; (-)) | 0.4 | 14 |  |  |  |  | 130 |  |  | 190 | Ki (Histamine H1 receptor): 70 nM; LLR msad (Rattus norvegicus): 2.75 mg/kg
15 | O=C(NCCN1CCN(C2CCCc3ccccc32)CC1)c1ccc(F)cc1 (single isomer, unassigned; (-)) |  | 15 |  |  |  |  | 70 | 3090 | 130 | 124 | Ki ([6]; read-out: Ki): 1380 nM; Ki (Histamine H1 receptor): 58 nM; LLR msad (Rattus norvegicus): 2.25 mg/kg
16 | O=C(NCCN1CCN(C2CCCc3ccccc32)CC1)c1ccccc1 (stereo in doubt; 32) [listing 1 of 2 here] | 1.1 | 36 |  |  |  |  | 110 | 21900 | 90 | 150 | Ki ([6]; read-out: Ki): 710 nM; Ki [14]: 6920 nM; Ki [7]: 3470 nM; Ki (Histamine H1 receptor): 30 nM
17 | O=C(NCCN1CCN(C2CCCc3ccccc32)CC1)c1ccccc1 (stereo in doubt; 32) [listing 2 of 2 here] |  |  | 93 | 0 | 4 | 4 |  |  |  |  | 
18 | O=C(NCCN1CCN(C2CCCc3ccccc32)CC1)c1ccc(F)cc1 (stereo in doubt; 33) [listing 1 of 2 here] | 1.5 | 52 |  |  |  |  | 70 | 12000 | 280 | 80 | Ki ([6]; read-out: Ki): 1180 nM; Ki [14]: 9770 nM; Ki [7]: 3470 nM; Ki (Histamine H1 receptor): 140 nM
19 | O=C(NCCN1CCN(C2CCCc3ccccc32)CC1)c1ccc(F)cc1 (stereo in doubt; 33) [listing 2 of 2 here] |  |  | 88 | 17 | 22 | 3 |  |  |  |  | 
20 | O=C(NCCN1CCN(C2CCCc3ccccc32)CC1)c1ccc(Cl)cc1 (stereo in doubt; 34) [listing 1 of 2 here] | 10 | 75 |  |  |  |  | 120 |  |  | 410 | Ki [6]: 1000 nM
21 | O=C(NCCN1CCN(C2CCCc3ccccc32)CC1)c1ccc(Cl)cc1 (stereo in doubt; 34) [listing 2 of 2 here] |  |  | 86 | 6 | 23 | 29 |  |  |  |  | 
22 | O=C(NCCN1CCN(C2CCCc3ccccc32)CC1)c1ccc(Cl)cc1 (stereo in doubt; (+)-34) | 210 | 1500 |  |  |  |  | 700 | 19700 | 200 | 8380 | Ki [6]: 3800 nM
23 | O=C(NCCN1CCN(C2CCCc3ccccc32)CC1)c1ccc(Cl)cc1 (stereo in doubt; (-)-34) | 4 | 38 |  |  |  |  | 480 | 27000 | 1250 | 450 | Ki [6]: 2700 nM; LLR msad (Rattus norvegicus): 2.5 mg/kg
24 | CCCN(CCC)C1CCc2cccc(O)c2C1 (stereo not drawn) [8-OH-DPAT] |  |  |  |  |  |  | 2380 | 87300 | 5240 | 9460 | Ki ([6]; read-out: Ki): 1100 nM; Ki [15]: > 1000 nM; Ki (D(1A) dopamine receptor [16]): > 1000 nM; LLR msad (Rattus norvegicus): 2.2 mg/kg; Ki [17]: > 2430 nM
25 | O=C1CC2(CCCC2)CC(=O)N1CCCCN1CCN(c2ncccn2)CC1 [BUSPIRONE] |  |  |  |  |  |  | 44 | 6100 |  | 1320 | Ki ([6]; read-out: Ki): 1250 nM; Ki [15]: 178 nM; Ki (D(1A) dopamine receptor [16]): > 1000 nM
26 | OCCN1CCN(CC/C=C2\c3ccccc3Sc3ccc(C(F)(F)F)cc32)CC1 [E-FLUPENTIXOL] |  |  |  |  |  |  |  |  |  |  | Ki (D(1A) dopamine receptor [18]): 18 nM
